Experimental data: patent US5462926A (Biomeasure, Inc., priority 1993, dated 1995)
Like-named read-outs stand apart in the source and are kept apart here. Where a SMILES comes first, the peptide text is derived from it. Bridges are numbered along the chain shown (N, C = ends). [ ]: non-standard residue; d: D form. 2Nal = N[C@@H](Cc1ccc2ccccc2c1)C(=O)O; d2Nal = N[C@H](Cc1ccc2ccccc2c1)C(=O)O

Legend:
[1] = biological target: T1, NMB receptor (Rattus norvegicus, UniProt P24053); test: [3H]inositol phosphates in NMB-R transfected cells (alone or NMB-stimulated); type: cell-based; set-up: a full length NMB-preferring bombesin receptor clone generated from rat esophagus; expressed in transfected cells; conditions: NMB-R transfected cells; for [3H]IP, analog Alone (10 μM): analog 10 μM alone, control 13 ± 3; for [3H]IP, analog Plus NMB (3 nM): analog 10 μM plus NMB 3 nM, NMB without analog 186 ± 58
T1 sequence (P24053 1-390): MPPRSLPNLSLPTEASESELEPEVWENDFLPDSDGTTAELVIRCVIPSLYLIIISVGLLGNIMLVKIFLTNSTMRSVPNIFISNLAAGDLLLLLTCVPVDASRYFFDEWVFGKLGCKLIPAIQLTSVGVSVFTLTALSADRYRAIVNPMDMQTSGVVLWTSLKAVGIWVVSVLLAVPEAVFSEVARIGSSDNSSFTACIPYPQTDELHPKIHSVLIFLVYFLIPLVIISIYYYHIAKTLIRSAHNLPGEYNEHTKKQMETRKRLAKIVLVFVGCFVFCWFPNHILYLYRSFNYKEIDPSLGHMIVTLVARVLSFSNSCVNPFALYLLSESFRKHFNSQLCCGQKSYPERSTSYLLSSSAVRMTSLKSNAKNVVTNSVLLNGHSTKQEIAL
Experimental: As described previously [Wada, E., et al. Neuron 6:421 (1991)], BALB 3T3 cells expressing a stably transfected rat NMB receptor (NMB-R transfected cells) were obtained using calcium phosphate precipitation of a full length NMB-preferring bombesin receptor clone generated from rat esophagus and subcloned into a modified version of the pCD2 plasmid. Cells were passaged every 3-4 days at confluence, using 0.1% trypsin in 1 mM EDTA. Rat glioblastoma C-6 tumor cells were maintained similarly and were passaged weekly at confluence. Both cell lines were cultured at 37° C. in a 5% CO2 atmosphere. Rat AR 42J pancreatic acinar cells were cultured in Dulbecco's modified Eagle's medium (DMEM) without antibiotics and supplemented with 10% (vol/vol) fetal calf serum. The incubation atmosphere consisted of 10% CO2 -90% humidified air at 37° C.
Measurement of phosphoinositides
Total phosphoinositides in C-6 cells and in NMB-R transfected cells were determined as described previously, with minor modifications [Benya, R. V. et al. Mol. Pharmacol. 42:1058 (1992); and Wang, L-H. et al. Biochem. Jo 286:641 (1992)]. Cells were grown to confluence in 24-well plates and then loaded with 100 μCi/ml myo-[2-^3 H]inositol in Dulbecco's modified essential medium with 2% fetal bovine serum at 37° C. for 48 hrs. Cells were washed and incubated in phosphoinositide buffer (standard buffer additionally containing 10 mM LiCl, 20 mM HEPES, 2 mM CaCl2, 2% BSA, and 1.2 mM MgSO4) for 15 min and then for 60 min at 37° C. with agonists at various concentrations or with 3 nM NMB (a half-maximal effective concentration) and possible antagonists at different concentrations. Reactions were halted using ice-cold 1% HCl in methanol, and the inositol phosphates (IP) were isolated as described previously [Bologna, M. et al. Cancer 63:1714 (1989); and Endo, T. et al. J. Endocrinolo 131:313 (1991)]. Briefly, after loading of the anion exchange column, free [^3 H]glycerophosphorylinositol was removed by washing with 5 mM disodium tetraborate in 60 mM sodium formate. Total [^3 H]inositol phosphates were then eluted using 100 mM formic acid in 1.0M ammonium formate as described previously [Benya, R. V. et al. Mol. Pharmacol. 42:1058 (1992); and Wang, L-H. et al. Biochem. J. 286:641 (1992 )].

[2] = biological target: T2, rat NMB receptor (Rattus norvegicus, UniProt P24053); test: Binding of 125I-[D-Tyr0]NMB to NMB-R transfected BALB 3T3 cells; conditions: for fold decrease in NMB receptor affinity compared with cyclo SS-octa (#1): structure-function comparison from Table 1
T2 construct: a full length NMB-preferring bombesin receptor clone generated from rat esophagus; expressed in transfected cells
T2 sequence (P24053 1-390): T1 sequence (P24053 1-390)
Experimental: Cells were passaged every 3-4 days at confluence, using 0.1% trypsin in 1 mM EDTA. Rat glioblastoma C-6 tumor cells were maintained similarly and were passaged weekly at confluence. Both cell lines were cultured at 37° C. in a 5% CO2 atmosphere. Rat AR 42J pancreatic acinar cells were cultured in Dulbecco's modified Eagle's medium (DMEM) without antibiotics and supplemented with 10% (vol/vol) fetal calf serum. The incubation atmosphere consisted of 10% CO2 -90% humidified air at 37° C.

[3] = biological target: T3, GRP receptors on rat pancreatic acini (Rattus norvegicus, UniProt P52500); test: Binding of 125I-[Tyr4]bombesin to pancreatic acini; conditions: read-out: Ki 125I-[Tyr4]Bn Binding, GRP Receptor, Rat Pancreatic Acini; Ki by Cheng method
T3 construct: from tissue; host or cells: dispersed pancreatic acini
T3 sequence (P52500 whole entry): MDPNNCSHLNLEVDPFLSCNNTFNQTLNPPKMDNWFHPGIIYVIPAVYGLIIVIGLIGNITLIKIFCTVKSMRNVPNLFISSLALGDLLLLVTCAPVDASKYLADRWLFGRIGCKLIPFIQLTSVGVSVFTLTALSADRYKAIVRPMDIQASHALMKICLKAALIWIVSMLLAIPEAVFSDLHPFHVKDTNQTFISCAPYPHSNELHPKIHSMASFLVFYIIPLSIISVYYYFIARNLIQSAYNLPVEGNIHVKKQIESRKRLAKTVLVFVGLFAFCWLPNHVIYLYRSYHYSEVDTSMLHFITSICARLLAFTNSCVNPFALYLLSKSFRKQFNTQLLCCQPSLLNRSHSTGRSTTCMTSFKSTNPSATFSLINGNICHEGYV
Excerpt: Nonsaturable binding was<10% of total binding in all experiments.

[4] = biological target: T1, NMB receptor; test: NMB membrane receptor assay, 125I-NMB, rat olfactory bulb membranes; type: binding; set-up: Membranes were prepared from rat olfactory bulb (NMB membrane receptor assay); from tissue; host or cells: rat olfactory bulb membranes; conditions: for Ki: Cheng method, unit inferred, read-out: affinity, 125I-NMB, Rat Olfactory bulb membranes (neuromedin B receptors)
[5] = biological target: T4, NMB receptors on C-6 cells (Rattus norvegicus, UniProt P24053); test: Binding of 125I-[D-Tyr0]NMB to C-6 glioblastoma cells; conditions: for Ki: Ki by Cheng method, read-out: Ki 125I-NMB Binding, NMB Receptor, C-6 Cells
T4 construct: endogenous in cells; host or cells: rat glioblastoma C-6 cells
T4 sequence (P24053 1-390): T1 sequence (P24053 1-390)
Experimental: Binding of ^125 I-[D-Tyr^0 ]NMB to C-6 glioblastoma and NMB-R transfected cells
Binding studies using rat glioblastoma C-6 or NMB-R transfected cells were performed as described previously [Benya, R. V. et al. Mol. Pharmacol. 42:1058 (1992); and Wang, L-H. et al. Biochem. J. 286:641 (1992)] by suspending disaggregated cells in binding buffer, which was composed of standing buffer ([…], 7.7 mM KCl, 1.0 mM EGTA, 0.02% soybean trypsin inhibitor) additionally containing 50 mM HEPES, 1 mM MgCl2, 1.5 mM CaCl2, 2.2 mM KH2 PO4, 0,015% glutamine, and 0.2% BSA (w/v) (pH 7.4). Incubations contained 75 pM ^125 I-[D-Tyr^0 ]NMB and 15×10^6 C-6 cells/ml or 2×10^6 NMB-R transfected cells/ml, for 60 min at 22° C. Nonsaturable binding of ^125 I-[D-Tyr^0 ]NMB was the amount of radioactivity associated with C-6 cells or NMB-R transfected cells when the incubation mixture contained […] NMB. Nonsaturable binding was<15% of total binding in all experiments; all values are reported herein as saturable binding (i.e., total minus nonsaturable binding).

[6] = biological target: T5, mu opioid receptors (Rattus norvegicus, UniProt P33535); test: Mu opioid membrane assay, [3H]DAGO, rat forebrain membranes; type: binding
T5 construct: rat forebrain (TRH, mu and delta opioid membrane assays); from tissue; host or cells: rat forebrain membranes
T5 sequence (P33535 whole entry): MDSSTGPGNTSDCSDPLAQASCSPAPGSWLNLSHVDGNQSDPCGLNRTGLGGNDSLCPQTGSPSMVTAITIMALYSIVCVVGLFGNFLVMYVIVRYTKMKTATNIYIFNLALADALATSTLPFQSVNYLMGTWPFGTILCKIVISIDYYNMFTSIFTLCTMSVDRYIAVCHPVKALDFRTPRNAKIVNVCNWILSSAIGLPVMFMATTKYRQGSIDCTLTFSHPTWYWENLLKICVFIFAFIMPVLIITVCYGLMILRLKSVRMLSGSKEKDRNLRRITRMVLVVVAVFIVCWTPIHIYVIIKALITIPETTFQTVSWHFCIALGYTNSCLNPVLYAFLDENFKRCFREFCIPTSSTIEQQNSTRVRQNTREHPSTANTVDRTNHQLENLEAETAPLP

[7] = 3 nM NMB, read-out: IC50 NMB-stimulated [3H]IP, NMB Receptor, Transfected Cells
[8] = NMB-R transfected BALB 3T3 cells, Ki by Cheng method, read-out: Ki 125I-NMB Binding, NMB Receptor, Transfected Cells
[9] = Cheng method, unit inferred, read-out: affinity, [3H]DAGO, Rat Forebrain membranes (mu opioid receptors)
[10] = NMB-R transfected cells, value or range given for a group, read-out: K1, 125I-NMB binding to NMB-R transfected cells (text)

Structure (SMILES)	IC50 [1, 7]	[3H]IP, analog Alone (10 μM) [1]	[3H]IP, analog Plus NMB (3 nM) [1]	Ki [2, 8]	Ki [3]	Ki [4]	Ki [5]	fold decrease in NMB receptor affinity compared with cyclo SS-octa (#1) [2]	Ki [6, 9]	fold by which cyclo SS-octa is more potent than the analog, 125I-NMB binding ([2]; NMB-R transfected cells)	Ki [2, 10]	further results
CC(C)[C@@H]1NC(=O)[C@H](CCCCN)NC(=O)[C@@H](Cc2c[nH]c3ccccc23)NC(=O)[C@H](Cc2ccc(O)cc2)NC(=O)[C@@H](NC(=O)[C@H](N)Cc2ccc3ccccc3c2)CSSC[C@@H](C(=O)N[C@@H](Cc2ccc3ccccc3c2)C(N)=O)NC1=O [Analog #1, H2 -D-Nal-Cys-Tyr-D-Trp-Lys-Val-Cys-Nal-NH2] (H-[d2Nal]CY[dW]KVC[2Nal]-NH2; disulfide 2-7)	0.895 ± 0.098 µM	12 ± 2 dym × 10^3	8 ± 4 dym × 10^3	0.216 ± 0.036 µM	18.3 ± 2.11 µM	0.043 ± 0.009 µM	0.059 ± 0.009 µM					concentration causing detectible inhibition of NMB-stimulated [3H]IP [1]: 0.3 µM; effect at 10 μM on NMB-stimulated increase in [3H]IP ([1]; 10 μM, 3 nM NMB): completely inhibited; slope of Schild regression ([1]; not significantly different from unity): 1.1(+0.2); Kd ([2]; NMB-R transfected 3T3 cells, read-out: Kd, inhibition of 125I-[D-Tyr0]NMB binding, NMB-R transfected 3T3 cells): 0.216 µM; concentration causing complete inhibition of 125I-NMB binding ([2]; NMB-R transfected cells): 3 µM; concentration causing detectible inhibition of 125I-NMB binding ([2]; NMB-R transfected cells): 0.1 µM; type of antagonism ([2]; NMB-R transfected cells, 0.5 μM): competitive antagonist; IC50 ([2]; NMB-R transfected cells, read-out: half-maximal inhibition of 125I-NMB binding): 0.216 µM; fold greater affinity for NMB receptors than mu opioid receptors ([4]; membranes, Table 4): 10 fold; Kd ([5]; read-out: Kd, inhibition of 125I-[D-Tyr0]NMB binding, glioblastoma C-6 cells): 0.059 µM; Ki ([6]; rat forebrain membranes, read-out: affinity, inhibition of [3H]DAGO binding to mu opioid receptors): 0.43 ± 0.13 µM
C[C@@H](O)[C@H](NC(=O)[C@@H]1CSSC[C@H](NC(=O)[C@H](N)Cc2ccc3ccccc3c2)C(=O)N[C@@H](Cc2ccc(O)cc2)C(=O)N[C@H](Cc2c[nH]c3ccccc23)C(=O)N[C@@H](CCCCN)C(=O)N[C@@H](Cc2ccc3ccccc3c2)C(=O)N1)C(N)=O [Analog #2, H2 -D-Nal-Cys-Tyr-D-Trp-Lys-Nal-Cys-Thr-NH2]	6.67 ± 0.435 µM	11 ± 2 dym × 10^3	39 ± 7 dym × 10^3	0.772 ± 0.094 µM	16.3 ± 3.82 µM	0.085 ± 0.02 µM	0.226 ± 0.036 µM	4 fold	0.0019 ± 0.0007 µM			
CC(C)[C@@H]1NC(=O)[C@H](CCCCN)NC(=O)[C@@H](Cc2c[nH]c3ccccc23)NC(=O)[C@H](Cc2ccc(O)cc2)NC(=O)[C@@H](NC(=O)[C@H](N)Cc2ccccc2)CSSC[C@@H](C(=O)N[C@@H](Cc2ccc3ccccc3c2)C(N)=O)NC1=O [Analog #4, H2 -D-Phe-Cys-Tyr-D-Trp-Lys-Val-Cys-Nal-NH2] (H-[dF]CY[dW]KVC[2Nal]-NH2; disulfide 2-7)	3.76 ± 0.568 µM	13 ± 1 dym × 10^3	33 ± 4 dym × 10^3	0.818 ± 0.068 µM	21.9 ± 4.26 µM	0.245 ± 0.13 µM	0.848 ± 0.191 µM	4 to 7 fold	0.65 ± 0.13 µM			
C[C@@H](O)[C@@H]1NC(=O)[C@H](CCCCN)NC(=O)[C@@H](Cc2c[nH]c3ccccc23)NC(=O)[C@H](Cc2ccc(O)cc2)NC(=O)[C@@H](NC(=O)[C@H](N)Cc2ccccc2)CSSC[C@@H](C(=O)N[C@@H](Cc2ccc3ccccc3c2)C(N)=O)NC1=O [Analog #7, H2 -D-phe-Cys-Tyr-D-Trp-Lys-Thr-Cys-Nal-NH2] (H-[dF]CY[dW]KTC[2Nal]-NH2; disulfide 2-7)	36.2 ± 4.97 µM	15 ± 1 dym × 10^3	99 ± 24 dym × 10^3	4.36 ± 0.328 µM	31 ± 4.65 µM	0.74 ± 0.16 µM	1.45 ± 0.078 µM		0.2 µM	18 fold	3.9 to 4.4 µM	IC50 ([1]; 3 nM NMB, read-out: IC50 NMB-stimulated [3H]IP, Transfected Cells (values in μM)): > 10 µM
CC(C)[C@@H]1NC(=O)[C@H](CCCCN)NC(=O)[C@@H](Cc2c[nH]c3ccccc23)NC(=O)[C@H](Cc2ccc(O)cc2)NC(=O)[C@@H](NC(=O)[C@H](N)Cc2ccc3ccccc3c2)CSSC[C@@H](C(=O)N[C@H](Cc2ccc3ccccc3c2)C(N)=O)NC1=O [Analog #8, H2 -D-Nal-Cys-Tyr-D-Trp-Lys-Val-Cys-D-Nal-NH2] (H-[d2Nal]CY[dW]KVC[d2Nal]-NH2; disulfide 2-7)	5.19 ± 0.987 µM	10 ± 3 dym × 10^3	67 ± 13 dym × 10^3	1.92 ± 0.201 µM	> 10 µM	1.48 ± 0.5 µM	0.67 ± 0.073 µM	6 fold	0.28 µM	9 fold	1.4 to 2.3 µM	
CC(C)[C@@H]1NC(=O)[C@H](CCCCN)NC(=O)[C@@H](Cc2c[nH]c3ccccc23)NC(=O)[C@H](Cc2ccc(O)cc2)NC(=O)[C@@H](NC(=O)[C@@H](N)Cc2ccc3ccccc3c2)CSSC[C@@H](C(=O)N[C@H](Cc2ccc3ccccc3c2)C(N)=O)NC1=O [Analog #9, H2 -Nal-Cys-Tyr-D-Trp-Lys-Val-Cys-D-Nal-NH2] (H-[2Nal]CY[dW]KVC[d2Nal]-NH2; disulfide 2-7)	4.41 ± 0.451 µM	8 ± 2 dym × 10^3	28 ± 6 dym × 10^3	1.16 ± 0.229 µM	> 10 µM	0.59 ± 0.17 µM	1.16 ± 0.214 µM		1.16 µM			
